Data: patent US20070082945A1, “Discodermolide compositions” (priority 2003, published 2007)
Converted amounts (≈) assume the structure as drawn.

Assays:
[1] = Solubility and stability in 40% PG/10% ethanol/50% normal saline with hydrotropic agents; type: physicochemical; conditions: aqueous with cosolvent or surfactant or cyclodextrin, read-out: Discodermolide Solubility
Excerpt: The solubility and stability of discodermolide in 40% propylene glycol/10% ethanol 50% normal saline diluted with hydrotropic agents is shown in Table 7.

microtubules = conditions: compared with paclitaxel; cited from earlier work
[2] = Effect of organic solvent ratio variation on solubility; type: physicochemical; conditions: propylene glycol/ethanol/normal saline mixture, aqueous with cosolvent or surfactant or cyclodextrin
tubulin = conditions: competition with paclitaxel; cited from earlier work
[3] = Stability of infusion concentrates diluted 1:5 with 20/80 propylene glycol/0.9% sodium chloride, ambient conditions; type: physicochemical
Method: In this example, stability of discodermolide infusion concentrates diluted 1:5 with 20/80 propylene glycol/0.9% sodium chloride solution under ambient conditions is measured. Table 4 describes the amount of degradation product formed over a period of up to 24 hours. The stability is analyzed by determining formation of degradation products in each of the infusion solutions as a function of time and temperature. Each sample is analyzed by HPLC with a UV detector. The solution for infusion was prepared by diluting discodermolide concentrates, 0.6 mg/mL, 2.0 mg/mL and 3.0 mg/mL, with 20/80 propylene glycol/0.9% sodium chloride solution in a 1:5 ratio. The discodermolide concentrate solutions of 0.6 mg/mL, 2.0 mg/mL and 3.0 mg/mL yielded discodermolide solutions for infusions 0.12 mg/mL, 0.4 mg/mL and 0.6 mg/mL, respectively.

[4] = Stability of 16 mg/mL infusion concentrate in propylene glycol (HPLC, UV detector), Example 13; type: physicochemical; conditions: for Assay / Total Impurities: 16 mg/mL infusion concentrate in PG
Method: The stability of an infusion concentrate of 16 mg/mL in propylene glycol at different temperatures is determined. Table 3 describes the amount of degradation product formed over a period of up to 12 weeks. The stability is analyzed by determining formation of degradation products in each of the infusion concentrates as a function of time and temperature. Each sample is analyzed by HPLC with a UV detector.

[5] = Precipitation on direct i.v. infusion followed by normal saline flush; conditions: direct i.v. infusion into the vein followed by a normal saline flush
Method: Preferably the infusion solution of the present invention is prepared by mixing the infusion concentrate with a diluent, such as 16.3% w/v ethanol in saline in a suitable container. A preferred formulation comprises 1 mL of 2 mg/mL infusion concentrate diluted with 1.6 mL of 16.3% w/v ethanol in saline to yield an infusion solution containing 0.77 mg/mL discodermolide in 40% propylene glycol, 10% ethanol and 50% normal saline. This solution is administered via i.v. infusion, or push into Y tubing containing a 0.9% normal saline drip, directly into the vein and the drug solution residue in the tubing will be flushed with normal saline. The volume of discodermolide solution given via i.v. push will vary from 0.3 mL (at the starting does of 0.2 mg or 0.13 mg/m^2) to 26 mL (for a dose of 20 mg or 11.43 mg/m^2) or 43 mL (for a dose of 33 mg or 19.2 mg/m^2).

purified tubulin = conditions: among the compounds known to induce polymerization; cited from earlier work
[6] = 0.12 mg/mL solution for infusion, 0 hours
[7] = 0.12 mg/mL solution for infusion, 2 hours
[8] = 0.12 mg/mL solution for infusion, 4 hours
[9] = 0.12 mg/mL solution for infusion, 8 hours
[10] = 0.12 mg/mL solution for infusion, 24 hours
[11] = 0.4 mg/mL solution for infusion, 0 hours
[12] = 0.4 mg/mL solution for infusion, 2 hours
[13] = 0.4 mg/mL solution for infusion, 4 hours
[14] = 0.4 mg/mL solution for infusion, 8 hours
[15] = 0.4 mg/mL solution for infusion, 24 hours
[16] = 0.6 mg/mL solution for infusion, 0 hours
[17] = 0.6 mg/mL solution for infusion, 2 hours
[18] = 0.6 mg/mL solution for infusion, 4 hours
[19] = 0.6 mg/mL solution for infusion, 8 hours
[20] = 0.6 mg/mL solution for infusion, 24 hours

SMILES: C=C/C=C\C(C)[C@H](OC(N)=O)[C@@H](C)[C@H](O)[C@@H](C)C/C(C)=C\C(C)C(O)[C@@H](C)/C=C\[C@@H](O)C[C@@H]1OC(=O)[C@H](C)C(O)C1C (single isomer, unassigned; (+)) [discodermolide, (+)-Discodermolide]
- solubility ([1]; 40% PG/10% EtOH/4% benzoic acid in normal saline): 1900 µg/mL (≈ 3.2 mM)
- solubility ([1]; 40% PG/10% EtOH/4% benzoic acid/1% benzyl alcohol in normal saline): 2200 µg/mL (≈ 3.7 mM)
- solubility ([1]; propylene glycol/ethanol/normal saline mixture, 40% PG/10% EtOH in normal saline): 910 µg/mL (≈ 1.53 mM)
- Effectiveness in mechanism-based assays (microtubules): more effective than paclitaxel
- solubility ([2]; PG 38 / EtOH 9 / normal saline 53 (%, w/v)): 640 µg/mL
- solubility ([2]; PG 38 / EtOH 9.5 / normal saline 52.5 (%, w/v)): 700 µg/mL
- solubility ([2]; PG 40 / EtOH 8 / normal saline 52 (%, w/v)): 620 µg/mL
- solubility ([2]; PG 40 / EtOH 9 / normal saline 51 (%, w/v)): 770 µg/mL
- solubility ([2]; PG 40 / EtOH 9.6 / normal saline 50.4 (%, w/v)): 870 µg/mL
- solubility ([2]; PG 40 / EtOH 10 / normal saline 50 (%, w/v)): 960 µg/mL
- Binding to tubulin (tubulin): binds to tubulin competitively with paclitaxel
- Assay [3, 6]: 105.6 % label claim
- Total Impurities [3, 6]: 0.17 % area
- Assay [3, 7]: 105.6 % label claim
- Total Impurities [3, 7]: 0.17 % area
- Assay [3, 8]: 106.4 % label claim
- Total Impurities [3, 8]: 0.21 % area
- Assay [3, 9]: 107.0 % label claim
- Total Impurities [3, 9]: 0.25 % area
- Assay [3, 10]: 104.6 % label claim
- Total Impurities [3, 10]: 0.33 % area
- Assay [3, 11]: 102.3 % label claim
- Total Impurities [3, 11]: 0.23 % area
- Assay [3, 12]: 101.8 % label claim
- Total Impurities [3, 12]: 0.97 % area
- Assay [3, 13]: 102.2 % label claim
- Total Impurities [3, 13]: 1.84 % area
- Assay [3, 14]: 102.0 % label claim
- Total Impurities [3, 14]: 3.35 % area
- Assay [3, 15]: 94.8 % label claim
- Total Impurities [3, 15]: 6.21 % area
- Assay [3, 16]: 103.0 % label claim
- Total Impurities [3, 16]: 0.28 % area
- Assay [3, 17]: 100.0 % label claim
- Total Impurities [3, 17]: 1.49 % area
- Assay [3, 18]: 99.4 % label claim
- Total Impurities [3, 18]: 2.19 % area
- Assay [3, 19]: 98.8 % label claim
- Total Impurities [3, 19]: 3.68 % area
- Assay [3, 20]: 89.9 % label claim
- Total Impurities [3, 20]: 8.90 % area
- Assay ([4]; 0-time): 103.9 % label claim
- Total Impurities ([4]; 0-time): 0.59%
- Assay ([4]; 5° C., 4 weeks): 102.2 % label claim
- Total Impurities ([4]; 5° C., 4 weeks): 0.60%
- Assay ([4]; 5° C., 8 weeks): 101.4 % label claim
- Total Impurities ([4]; 5° C., 8 weeks): 0.48%
- Assay ([4]; 5° C., 12 weeks): 100.7 % label claim
- Total Impurities ([4]; 5° C., 12 weeks): 0.49%
- Assay ([4]; 25° C./60% RH, 3 weeks): 100.7 % label claim
- Total Impurities ([4]; 25° C./60% RH, 3 weeks): 0.56%
- Assay ([4]; 25° C./60% RH, 4 weeks): 103.6 % label claim
- Total Impurities ([4]; 25° C./60% RH, 4 weeks): 0.66%
- Assay ([4]; 25° C./60% RH, 8 weeks): 100.5 % label claim
- Total Impurities ([4]; 25° C./60% RH, 8 weeks): 0.68%
- Assay ([4]; 25° C./60% RH, 12 weeks): 100.1 % label claim
- Total Impurities ([4]; 25° C./60% RH, 12 weeks): 0.65%
- Assay ([4]; 50° C./75% RH, 3 weeks): 99.4 % label claim
- Total Impurities ([4]; 50° C./75% RH, 3 weeks): 0.65%
- Assay ([4]; 50° C./75% RH, 4 weeks): 101.6 % label claim
- Total Impurities ([4]; 50° C./75% RH, 4 weeks): 0.65%
- Assay ([4]; 50° C./75% RH, 8 weeks): 99.5 % label claim
- Total Impurities ([4]; 50° C./75% RH, 8 weeks): 0.65%
- Assay ([4]; 50° C./75% RH, 12 weeks): 99.2 % label claim
- Total Impurities ([4]; 50° C./75% RH, 12 weeks): 0.62%
- Degradation profile and long term stability ([4]; 16 mg/mL infusion concentrate in propylene glycol): comparable to 2.0 mg/mL
- Precipitation on administration [5]: will not cause any precipitation
- Potency to induce polymerization of purified tubulin (purified tubulin): the most potent
